Measurements taken from patent US7378387B2, “Method of suppressing immune response by reducing intracellular content of glutathione in macrophages and monocytes” (Ajinomoto Co., Inc., priority 1997, dated 2008).

Assays:
[1] = test system: insulin-non-dependent diabetes mellitus; assay: Blood sugar level in db/db mice (Example 26); type: in vivo; details: intraperitoneal, age 4 to 9 weeks, three times per week; at satiation; saline 100
Text: db/db mice purchased from Nippon Clair, Co. were naturally mated together. Among the off spring mice, a colony of db/db mice with a high frequency of the spontaneous onset of insulin-non-dependent diabetes mellitus was established. Male db/db mice from the colony were used for the present experiment. Chemical agents were intraperitoneally administered to the db/db mice aged 4 to 9 weeks three times per week, in total 18 times; and based on the level of blood sugar in the mice at satiation, the effects of the chemical agents on the improvement of the diseased conditions of insulin-non-dependent diabetes mellitus were followed once per week. The doses were the same as in Example 24.

IL-6 [2] = assay: IL-6 in culture supernatant of macrophage-like cells from rheumatoid arthritis patients (Example 17); type: cell-based, human; details: added at 2 mM
Experimental: (§1) A stimulator was added to 1×10^6 MΦ, and the incubation was conducted at 37° C. for 2 days in a CO2 incubator. After centrifugation, the culture supernatant was collected.
The amount of IL-6 was determined using IL-6 dependent mouse hybridoma MH60 cells (J. Eur. Immunol., vol. 18, p. 951, 1988). One hundred microliters of the culture supernatant were added to 100 μl of the MH60 cell suspension adjusted to 1×10^5 cells/ml in a 10% FCS-containing RPMI medium, and the mixed solution was incubated at 37° C. for 2 days in a CO2 incubator. Subsequently, 10 μl of MTT (supplied by Sigma Co.) solution adjusted to a concentration of 5 mg/ml in the same medium were added thereto, and the reaction was conducted at 37° C. for 5 hours. After the completion of the reaction, the centrifugation was conducted. The supernatant (160 μl) was removed, and 100 μl of a mixture of hydrochloric acid and propanol were added to the residue. The suspension was conducted using a pipetman to dissolve the cells. Immediately after the dissolution, an absorbance of 570 nm was measured with an immunometer (supplied by Bio-Rad).
By the same manner as in Example 3, macrophage-like cells were collected from tissues of rheumatoid arthritis patients, and were then suspended and adjusted in a phenol red-free RPMI 1640 culture medium supplemented with 10% fetal calf serum to 3×10^6 cells/ml. […]

IL-12 = IL-12 production of MΦ from JaK3 knock out mice (Example 6); type: in vivo; details: stimulation of LPS or IFNγ; 1 mg/ml in city water, 24 days; no production in control group
Experimental: The amount of IL-12 was determined through bioassay using cells of human T cell strain 2D6 (J. Leukocyte Biology, vol. 61, p. 346, 1997).
2D6 cells which had been incubated in an RPMI 1640 medium containing 500 pg/ml of recombinant human IL-12, 50 μM of 2-mercaptoethanol and 10% FCS (fetal calf serum) were moved to a tube, and centrifugally washed three times with the above-mentioned medium without IL-12 and cell density was adjusted to 1×10^5/ml. The cell suspension was added in an amount of 100 μl each to a 96-well flat bottom plate containing a sample serially diluted in advance with an RPMI 1640 medium containing 50 μM of 2-mercaptoethanol and 10% FCS in an amount of 100 μl each. […] The cells a harvested, and the radioactivity was measured using a β counter (Matrix 96, supplied by Packard).
(§2) Macrophages (MΦ) were prepared from knock out mice deficient in a molecule participating in a signal transduction system from a receptor, and the function of the redox system was analyzed. […]
(§3) Peritoneal cells were harvested from three groups of knock out mice, and stimulated with LPS, IL-2, IFNγ and a combination thereof. The NO production, the IL-6 production and the IL-12 production were measured. […] Then, the IL-6 production was analyzed. In LPS stimulation, the amount was detected as 962 pg/ml in the knock out mice derived MΦ culture, 122 pg/ml in the NAC group, and 82 pg/ml in the GSH-OEt group. […]

IL-6 [3] = assay: IL-6 production of MΦ from JaK3 knock out mice (Example 6); type: in vivo; details: LPS stimulation; 1 mg/ml in city water, 24 days; control knock out mice 962 pg/ml
Experimental: as §1
The amount of IL-6 was determined using IL-6 dependent mouse hybridoma MH60 cells (J. Eur. Immunol., vol. 18, p. 951, 1988). One hundred microliters of the culture supernatant were added to 100 μl of the MH60 cell suspension adjusted to 1×10^5 cells/ml in a 10% FCS-containing RPMI medium, and the mixed solution was incubated at 37° C. for 2 days in a CO2 incubator. […] Immediately after the dissolution, an absorbance of 570 nm was measured with an immunometer (supplied by Bio-Rad).
as §2, §3

[4] = test system: reductive glutathione in MΦ; assay: GSH content in MΦ of JaK3 knock out mice by ACAS after free intake in city water (Example 6); type: in vivo; details: free intake of city water containing 1 mg/ml, 24 days
Experimental: Three-hundred microliters of a cell suspension adjusted concentration of 3×10^5 cells/ml in an RPMI 1640 medium (phenol red-free) were charged into a chambered coverglass (#136439, supplied by Nunc), and incubated at 37° C. for 2 hours using a CO2 incubator. The culture solution was washed with the medium, and 300 μl of monochlorobimane (supplied by Molecular Plobe) adjusted to 10 μM in the same medium were added thereto. The mixture was charged into a CO2 incubator of 37° C., and the reaction was conducted for 30 minutes. The fluorescent intensity was measured with ACAS. In ACAS, a UV laser was used.
Macrophages (MΦ) were prepared from knock out mice deficient in a molecule participating in a signal transduction system from a receptor, and the function of the redox system was analyzed. […] Methods applied in Example 2 was repeated. JaK3 knock out mice were divided into three groups. A control group was a group of usual city water free-intake. An NAC group was a group of free intake of city water containing 1 mg/ml of NAC. A GSH-OEt group was a group of free intake of city water containing 1 mg/ml of GSH-OEt. […]
Peritoneal cells of knock out mice which had undergone the respective treatments were harvested, and the GSH content in the cells was analyzed using ACAS with MCB. […]

SMILES | Relative ratio % of blood sugar level, 6 weeks [1] [%] | Relative ratio % of blood sugar level, 7 weeks [1] [%] | Relative ratio % of blood sugar level, 8 weeks [1] [%] | IL-6 in the culture supernatant of the macrophages (IL-6 [2]) | amount of IL-12 (IL-12) [pg/mL] | IL-6 production (IL-6 [3]) [pg/mL] | content of reductive glutathione in MΦ in comparison with control mice [4]
CC(=O)N[C@@H](CSSC[C@H](NC(C)=O)C(=O)O)C(=O)O [(NAC)2, N,N′-diacetylcystine] | 95 | 100 | 98 |  |  |  | 
COC(=O)[C@H](CSSC[C@H](NC(C)=O)C(=O)OC)NC(C)=O [(NAC-OMe)2, N,N′-diacetylcystine dimethyl ester] | 94 | 92 | 93 |  |  |  | 
CCOC(=O)CNC(=O)[C@H](CS)NC(=O)CC[C@H](N)C(=O)O [GSH-OEt, glutathione monoethyl ester] |  |  |  | prominently decreased | 610 | 82 | markedly increased
CC(=O)N[C@@H](CS)C(=O)O [NAC, N-acetylcysteine, reference compound] |  |  |  |  | 420 | 122 | markedly increased
